{"source": "patent US6753024B2", "about": "“Method for making a food preservative and for preserving food” (The United States of America as represented by the …, priority 2002, dated 2004)", "system": "Micrococcus luteus ATCC 10240", "assay": "Inhibition of test bacteria by nisin produced in fermented poi", "format": "cell-based", "conditions": "nisin produced by Lactococcus lactis subspecies lactis ATCC 11454 in taro; test bacteria known to cause food spoilage", "excerpt": "The nisin inhibits a test bacteria, Micrococcus luteus ATCC 10240, known to cause food spoilage. Thus, the Lactococcus lactis subspecies lactis ATCC 11454 grows in the taro and produces a bacteriocin therein."}
{"substance": "nisin", "values": [{"measurement": "inhibition of test bacteria", "value": "inhibits"}]}
